We go through four compounds from patent publication US4730005A, “Leukotriene antagonist” (SmithKline Beckman Corporation, priority 1986, dated 1988).

For experiment [1], the system named is LTD4 induced bronchoconstriction in guinea pigs. Put plainly: in vivo inhibition of LTD4 induced bronchoconstriction (airway resistance RL) in guinea pigs. As to conditions: intravenous. More on the design: species or system guinea pig (adult male albino Hartley strain). How it is done:
(§1) The leukotriene antagonist activity of the compounds of this invention is measured by the ability of the compounds to inhibit the leukotriene induced contraction of guinea pig tracheal tissues in vitro and to inhibit leukotriene induced bronchoconstriction in guinea pigs in vivo. The following methodologies were employed: In vitro: Guinea pig (adult male albino Hartley strain) tracheal spiral strips of approximate dimensions 2 to 3 mm cross-sectional width and 3.5 cm length were bathed in modified Krebs buffer in jacketed 10 ml tissue bath and continously aerated with 95% 02 /5% CO2. The tissues were connected via silk suture to force displacement transducers for recording isometric tension. The tissues were equilibrated for 1 hr., pretreated for 15 minutes with meclofenamic acid (1 μM) to remove intrinsic prostaglandin responses, and then pretreated for an additional 30 minutes with either the test compound or vehicle control. A cumulative concentration-response curve for LTD4 on triplicate tissues was generated by successive increases in the bath concentration of the LTD4. In order to minimize intertissue variability, the contractions elicited by LTD4 were standardized as a percentage of the maximum response obtained to a reference agonist, carbachol (10 μM).
Calculations: The averages of the triplicate LTD4 concentration-response curves both in the presence and absence of the test compound were plotted on log graph paper. The concentration of LTD4 needed to elicit 30% of the contraction elicited by carbachol was measured and defined as the EC30. The -log KB value for the test compound was determined by the following equations: [formula] In vivo: Anesthetized, spontaneously breathing guinea pigs (Adult male albino Hartley strain) were monitored on a Buxco pulmonary mechanics computer. Changes in airway resistance (RL) were calculated by the computer on a breath-by-breath basis at isovolumic points from signals measuring airflow and transpulmonary pressure using differential pressure transducers. Animals received either test compound or vehicle control intravenously via the jugular vein. LTD4 was then injected into the jugular vein. The bronchoconstriction produced was reflected by % changes in airways resistance relative to the baseline values obtained prior to injection of the test compound or vehicle control. Each guinea pig received either vehicle control or test compound.
Calculations: The average of 3-6 animals per treatment was calculated using the % changes in the pulmonary parameters for control and test compound-treated animals. The average % inhibition by the test compound was calculated from the following equation: [formula]

Experiment [2] deals with carrageenan peritonitis in mice. Put plainly: carrageenan peritonitis in mice. In kind it is in vivo. The conditions noted are these: oral administration at 100 mg/kg.
Experiment [3] has as its system arachidonic acid-induced inflammation in mice. Put plainly: arachidonic acid-induced inflammation in mice. In kind it is in vivo.
For experiment [4], the target named is T1, leukotriene D4 (LTD4) induced contraction of guinea pig tracheal tissues (Cavia porcellus, UniProt Q2NNR5).
T1 construct: Guinea pig (adult male albino Hartley strain) tracheal spiral strips; from tissue; host or cells: guinea pig trachea (spiral strips, adult male albino Hartley strain)
T1 sequence (Q2NNR5 1-340): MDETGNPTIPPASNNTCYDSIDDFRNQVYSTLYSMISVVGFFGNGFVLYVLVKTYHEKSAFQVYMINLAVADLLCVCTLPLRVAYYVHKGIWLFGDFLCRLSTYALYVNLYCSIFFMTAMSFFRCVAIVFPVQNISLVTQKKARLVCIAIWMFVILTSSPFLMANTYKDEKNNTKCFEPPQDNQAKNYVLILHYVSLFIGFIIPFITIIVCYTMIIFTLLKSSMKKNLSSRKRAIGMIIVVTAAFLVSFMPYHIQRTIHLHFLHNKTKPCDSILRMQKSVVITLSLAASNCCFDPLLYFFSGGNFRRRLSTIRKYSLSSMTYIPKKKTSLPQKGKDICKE
Put plainly: in vitro inhibition of LTD4 induced contraction of guinea pig tracheal spiral strips. The conditions noted are these: guinea pig trachea, LTD4 agonist, 30 min pretreatment with test compound. Type of experiment: cell-based, guinea pig (adult male albino Hartley strain). On the procedure: as §1, with “μM). Calculations: The averages of the triplicate LTD4 concentration-response curves both in the presence and absence of the test compound were plotted on log graph paper. The concentration of LTD4 needed to elicit 30% of the contraction elicited by carbachol was measured and defined as the EC30. The -log KB value for the test compound was determined by the following equations: [formula] In vivo: Anesthetized, spontaneously breathing guinea pigs (Adult male albino Hartley strain) were monitored on a Buxco pulmonary mechanics computer. Changes in airway resistance (RL) were calculated by the computer on a breath-by-breath basis at isovolumic points from signals measuring airflow and transpulmonary pressure using differential pressure transducers. Animals received either test compound or vehicle control intravenously via the jugular vein. LTD4 was then injected into the jugular vein. The bronchoconstriction produced was reflected by % changes in airways resistance relative to the baseline values obtained prior to injection of the test compound or vehicle control. Each guinea pig received either vehicle control or test compound.” for “μM).”

What is called ED50 is the midpoint of the dose-response relation. High values mean weaker potency, low ones greater potency. On to `O=C(O)CCSC(SCCC(=O)O)c1ccccc1CCCCCCCCc1ccccc1` [2 2 C8 H16 phenyl H, 4,6-Dithia-5-[2-(8-phenyloctyl)phenyl]nonanedioic acid], for which the “% Inhibition of RL” value in experiment [1] ((1) 5 mg/kg) worked out at 100%; in experiment [1] ((2) 5 mg/kg), 95.3%. The “activity against carrageenan peritonitis” value in experiment [2] is on record as “demonstrated activity”. The compound also had an ED50 in experiment [3] (Mus musculus, oral) of 105 mg/kg. Moreover, the anti-inflammatory activity result in experiment [3] (oral administration), in experiment [3] (subcutaneous administration) and in experiment [3] (topical administration) was “demonstrated anti-inflammatory activity” throughout. Moreover, the Kb in experiment [4] was 0.316 µM.

In the case of `CCCCCCCCCCCCc1ccccc1C(SCCC(=O)O)SCCC(=O)O` [2 2 C12 H25 H, 4,6-Dithia-5-(2-dodecylphenyl)nonanedioic acid], in experiment [1] (5 mg/kg), the “% Inhibition of RL” value came to 96.5%. Moreover, in experiment [4], the Kb was 0.631 µM.

Consider `O=C(O)CCSC(SCCC(=O)O)c1ccccc1OCCCCCCc1ccccc1` [2 2 OC6 H12 phenyl H, 4,6-Dithia-5-[2-(6-phenylhexyloxy)phenyl]nonanedioic acid], for which the “% Inhibition of RL” value in experiment [1] (10 mg/kg) is 26.4%. Besides, in experiment [4], the Kb is 5.01 µM.

As for `CCCCCCCCCCCOc1ccccc1C(SCCC(=O)O)SCCC(=O)O` [2 2 OC11 H23 H, 4,6-Dithia-5-(2-undecyloxyphenyl)nonanedioic acid], the “% Inhibition of RL” value in experiment [1] (10 mg/kg) was found to be 89.4%. For the same compound, in experiment [4], the Kb is 0.398 µM.
